What was measured:
μ-opioid receptor = target: T1, μ-opioid receptor (Homo sapiens, UniProt P35372); test: μ-opioid receptor [35S]GTPγS functional assay; format: biochemical; conditions: for Emax: maximal effect relative to DAMGO
T1 construct: purchased Perkin Elmer, Shelton, Conn
Description: [^35S]GTPγS functional assays were conducted using freshly thawed μ-receptor membranes (Perkin Elmer, Shelton, Conn.). Assay reactions were prepared by sequentially adding the following reagents to binding buffer (100 mM NaCl, 10 mM MgCl2, 20 mM HEPES, pH 7.4) on ice (final concentrations indicated): membrane protein (0.026 mg/mL), saponin ([…]), GDP ([…]) and [^35S]GTPγS (0.20 nM; Perkin Elmer, Shelton, Conn.). The prepared membrane solution (190 μl/well) was transferred to 96-shallow well polypropylene plates containing 10 μl of 20× concentrated stock solutions of the agonist [D-Ala^2, N-methyl-Phe^4 Gly-ol^5]-enkephalin (DAMGO) prepared in dimethyl sulfoxide (DMSO). Plates were incubated for 30 min at about 25° C. with shaking. Reactions were terminated by rapid filtration onto 96-well Unifilter GF/B filter plates (Perkin Elmer, Shelton, Conn.) using a 96-well tissue harvester (Perkin Elmer, Shelton, Conn.) followed by three filtration washes with 200 μl of ice-cold wash buffer (10 mM NaH2PO4, 10 mM Na2HPO4, pH 7.4). Filter plates were subsequently dried at 50° C. for 2-3 hours. BetaScint scintillation cocktail (Perkin Elmer, Shelton, Conn.) was added (50 μl/well) and plates were counted using a Packard Top-Count for 1 min/well. Data were analyzed using the sigmoidal dose-response curve fitting functions in GraphPad PRISM v. 3.0, or an in-house function for non-linear, sigmoidal dose-response curve-fitting.
μ GTP EC50 is the concentration of a compound providing 50% of the maximal response for the compound at a μ-opioid receptor.
μ GTP Emax (%) is the maximal effect elicited by a compound relative to the effect elicited by DAMGO, a standard agonist. Generally, the μ GTP Emax (%) value measures the efficacy of a compound to treat or prevent pain or other Conditions.

[1] = target: T2, human kappa opioid receptor (κ) (Homo sapiens, UniProt P41145); test: κ-opioid receptor radioligand ([3H]-U69,593) dose displacement binding assay
T2 construct: expressed in transfected cells; host or cells: HEK-293
Description: Membranes from recombinant HEK-293 cells expressing the human kappa opioid receptor (κ) (cloned in house) were prepared by lysing cells in ice cold hypotonic buffer (2.5 mM MgCl2, 50 mM HEPES, pH 7.4) (10 mL/10 cm dish) followed by homogenization with a tissue grinder/Teflon pestle. Membranes were collected by centrifugation at 30,000×g for 15 min at 4° C. and pellets were resuspended in hypotonic buffer to a final concentration of 1-3 mg/mL. Protein concentrations were determined using the BioRad protein assay reagent with bovine serum albumen as standard. Aliquots of κ receptor membranes were stored at −80° C.
Radioligand dose displacement assays used 0.4 nM [^3H]-U69,593 (GE Healthcare, Piscataway, N.J.; 40 Ci/mmole) with 15 μg membrane protein (recombinant κ opioid receptor expressed in HEK 293 cells; in-house prep) in a final volume of 200 μl binding buffer (5% DMSO, 50 mM Trizma base, pH 7.4). Non-specific binding was determined in the presence of 10 μM unlabeled naloxone or U69,593. All reactions were performed in 96-well polypropylene plates for 1 hour at a temperature of about 25° C. […] Fifty μl/well scintillation cocktail (Perkin Elmer, Shelton, Conn.) was added and plates were counted in a Packard Top-Count for 1 min/well.

κ opioid receptor = target: T3, κ opioid receptor (Homo sapiens, UniProt P41145); test: κ-opioid receptor [35S]GTPγS functional assay; format: biochemical
T3 construct: expressed in transfected cells; host or cells: HEK-293 (inferred from the in-house κ membrane preparation)
Description: Functional [^35S]GTPγS binding assays were conducted as follows. κ opioid receptor membrane solution was prepared by sequentially adding final concentrations of 0.026 μg/μl κ membrane protein (in-house), 10 μg/mL saponin, 3 μM GDP and 0.20 nM [^35S]GTPγS to binding buffer (100 mM NaCl, 10 mM MgCl2, 20 mM HEPES, pH 7.4) on ice. The prepared membrane solution (190 μl/well) was transferred to 96-shallow well polypropylene plates containing 10 μl of 20× concentrated stock solutions of agonist prepared in DMSO. Plates were incubated for 30 min at a temperature of about 25° C. with shaking. Reactions were terminated by rapid filtration onto 96-well Unifilter GF/B filter plates (Perkin Elmer, Shelton, Conn.) using a 96-well tissue harvester (Packard) and followed by three filtration washes with 200 μl ice-cold binding buffer (10 mM NaH2PO4, 10 mM Na2HPO4, pH 7.4). Filter plates were subsequently dried at 50° C. for 2-3 hours. Fifty μ1/well scintillation cocktail (Perkin Elmer, Shelton, Conn.) was added and plates were counted in a Packard Top-Count for 1 min/well.
κ GTP EC50 is the concentration of a compound providing 50% of the maximal response for the compound at a κ receptor.
κ GTP Emax (%) is the maximal effect elicited by a compound relative to the effect elicited by U69,593.

T1 sequence (P35372 whole entry, species assumed): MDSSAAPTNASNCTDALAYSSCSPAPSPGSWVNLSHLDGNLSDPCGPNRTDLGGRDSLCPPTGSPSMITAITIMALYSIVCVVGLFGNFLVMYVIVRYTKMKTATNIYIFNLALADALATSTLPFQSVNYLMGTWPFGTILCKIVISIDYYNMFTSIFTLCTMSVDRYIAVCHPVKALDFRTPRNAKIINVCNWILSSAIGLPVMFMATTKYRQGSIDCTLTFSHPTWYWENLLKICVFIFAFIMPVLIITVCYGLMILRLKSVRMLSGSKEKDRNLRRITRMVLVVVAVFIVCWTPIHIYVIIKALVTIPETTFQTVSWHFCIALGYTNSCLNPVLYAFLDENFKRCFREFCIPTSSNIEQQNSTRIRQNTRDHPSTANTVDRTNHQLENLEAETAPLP
T3 sequence (P41145 whole entry): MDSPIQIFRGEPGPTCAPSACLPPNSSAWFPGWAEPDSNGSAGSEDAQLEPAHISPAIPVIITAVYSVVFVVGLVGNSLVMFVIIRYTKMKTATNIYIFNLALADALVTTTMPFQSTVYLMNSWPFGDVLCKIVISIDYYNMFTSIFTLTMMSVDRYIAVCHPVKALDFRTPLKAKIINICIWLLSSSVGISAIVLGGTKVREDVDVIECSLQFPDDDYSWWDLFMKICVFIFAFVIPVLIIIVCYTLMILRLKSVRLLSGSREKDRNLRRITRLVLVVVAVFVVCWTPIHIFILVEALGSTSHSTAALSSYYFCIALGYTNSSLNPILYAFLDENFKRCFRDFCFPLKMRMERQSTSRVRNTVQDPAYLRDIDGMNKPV
T2 sequence (P41145 whole entry): as above

Row | SMILES | EC50 (μ-opioid receptor) [nM] | Emax (μ-opioid receptor) [%] | Ki [1] [nM] | EC50 (κ opioid receptor) [nM] | Emax (κ opioid receptor; maximal effect relative to U69,593) [%]
1 | CCN1C(=O)N(CC)[C@]2(CC[C@H]3[C@H]4Cc5ccc(O)cc5[C@@]3(CCN4C)C2)C1=O [Compound 21, (4S,4b′S,8a′R,9′R)-1,3-diethyl-3′-hydroxy-11′-methyl-8′,8a′,9′,10′-tetrahydro-5′H,7′H-spiro[imidazolidine-4,6′-[9,4b](epiminoethano)phenanthrene]-2,5-dione] | 54.7 ± 7.76 | 24.7 ± 2.46 | 10.5 ± 1.11 | 221 ± 22.6 | 56.7 ± 3.66
2 | CN(C)CCN1CC[C@]23C[C@]4(CC[C@@]2(O)[C@H]1Cc1ccc(O)cc13)NC(=O)NC4=O [Compound 29, (4S,4b′R,8a′S,9′R)-11′-(2-(dimethylamino)ethyl)-3′,8a′-dihydroxy-8′,8a′,9′,10′-tetrahydro-5′H,7′H-spiro[imidazolidine-4,6′-[9,4b](epiminoethano)phenanthrene]-2,5-dione] | 3920 ± 571 | 23.4 ± 1.68 | – | – | –
3 | CCN1C(=O)N(CC)[C@]2(CC[C@@]3(O)[C@H]4Cc5ccc(C#N)cc5[C@@]3(CCN4C)C2)C1=O [Compound 32, (4S,4b′R,8a′S,9′R)-1,3-diethyl-8a′-hydroxy-11′-methyl-2,5-dioxo-8′,8a′,9′,10′-tetrahydro-5′H,7′H-spiro[imidazolidine-4,6′-[9,4b](epiminoethano)phenanthrene]-3′-carbonitrile] | > 20000 | 16.3 ± 1.76 | – | – | –
4 | CN1CC[C@]23C[C@]4(CC[C@H]2[C@H]1Cc1ccc(O)cc13)NC(=O)NC4=O [Compound 19, (4S,4b′S,8a′R,9′R)-3′-hydroxy-11′-methyl-8′,8a′,9′,10′-tetrahydro-5′H,7′H-spiro[imidazolidine-4,6′-[9,4b](epiminoethano)phenanthrene]-2,5-dione] | 97 ± 11.5 | 54.6 ± 3.04 | – | – | –

— patent US10030021B2, “Spirocyclic morphinans and use thereof” (Purdue Pharma L.P., priority 2014, dated 2018)
